Laboratory results: paper PMC13252604, “First Generation Proteolysis Targeting Chimeras (PROTACs) for the Treatment of Progeria” (Advanced Science, 2026)
≈ marks a conversion by molar mass, not a printed value.

Key:
[1] = Stability in cell culture; format: in vitro ADME
Text: TABLE 1 Pharmacokinetic parameters of PROTAC 2. | column: Stability (hours) ^b / Cell culture

[2] = test system: phosphorylated histone 2AX (pH2AX); assay: pH2AX immunoblot in mouse progeroid cells; format: cell-based; settings: Lmna^G609G/G609G fibroblasts, 5 µM, relative to GAPDH
Procedure: Confocal fluorescence microscopy images are representative of 2 independent experiments. […] Representative cropped immunoblots are shown. […] MW, molecular weight (in kDa) markers. (C) PROTAC 2 decreases senescence‐associated β‐galactosidase (SA‐βgal) activity, interleukin (IL) 1α and p16 senescent markers. Lmna^G609G/G609G (G609G) or Lmna^+/+ (WT) fibroblasts were incubated with vehicle or compound 2 (5 µM). […] Data were analysed using one‐way ANOVA followed by Dunnett's post–hoc test. ^*, p < 0.05; ^**, p < 0.01, ^***, p < 0.001, ^****, p < 0.0001 vs G609G cells. […]
compound exposure. […] Samples were analysed by electrophoresis in polyacrylamide gels (All Kd SDS-PAGE, BioRad) and the proteins transferred to nitrocellulose membranes (GE Healthcare, Amersham). […]
GAPDH (Cell Signaling, 2118S, 1:5000) and anti-actin (Santa Cruz Biotechnology, sc-376248, 1:500) as antibodies for loading control. […] The bands were quantified by densitometry using the […]
Quantification of different proteins intensity was performed using ImageJ (NIH) except for nuclear rim progerin intensity with Cell Profiler (Broad Institute). […]
SA β-galactosidase activity was determined by the FDG method. […]

[3] = test system: HGADFN167 Lmna^G608G/G608G fibroblasts; assay: Immunoblot and immunocytofluorescence analysis in human progeroid cells (Ki‐67, nuclei, pH2AX, H3K9Me3); format: cell-based; settings: HGADFN167, 5 µM, 20 days
Text: FIGURE 6 (A) Representative cropped immunoblots and progerin quantification in human Lmna^G608G/G608G fibroblasts. MW, molecular weight (in kDa) markers. […] (B) PROTAC 2 increases cell proliferation (upper panels) and decreases the number of misshapen nuclei (lower panels). White arrows highlight selected misshapen nuclei. (C) PROTAC 2 decreases senescence‐associated β‐galactosidase (SA‐βgal) activity, interleukin (IL) 6, p16 and p21 senescent markers. Bar graphs show mean±sem of 2 (SA‐βgal and p21) or 3 (IL‐6 and p16) independent experiments performed in triplicate. (D) PROTAC 2 decreases phosphorylated histone 2AX (pH2AX) and increases trimethylated histone 3 (H3K9Me3) levels. (E) PROTAC 2 increases the oxygen consumption rate (OCR), ATP production and the number of healthy mitochondria in human progeroid cells. Bar graphs show mean±sem of 2 independent experiments performed in duplicate. In all cases, HGADFN167 Lmna^G608G/G608G (G608G) or HGFDFN168 Lmna^+/+ (WT) fibroblasts, provided by the Progeria Research Foundation, were incubated with vehicle or 2 (5 µM) for 20 days. Data were analysed using one‐way ANOVA followed by Dunnett's post–hoc test vs vehicle (panel A) or vs G608G cells (panels B‐E). ^*, p < 0.05; ^**, p < 0.01; ^***, p < 0.001; ^****, p < 0.0001. Microscopy images are representative of 2 independent experiments and corresponding bar graphs show mean±sem of 4 fields from 2 independent experiments. […]
compound exposure. Then, cells were incubated with compound of interest or DMSO for the appropriate time and lysed with cold laemmli buffer (50 mM Tris-HCl pH 7.4, 150 mM NaCl, 1% Igepal) with a mixture of protease and phosphatase inhibitors (1 mM PMSF, 10 mM NaF, 0.3 mg/mL CalyculinA, 1 mM sodium orthovanadate, 10 mM β-glycerol-phosphate; all from Sigma-Aldrich and complete protease inhibitor cocktail, from Roche). Proteins were denatured at 95 ᵒC for 5 min and the lysates were immediately used or stored at -20 ᵒC until use. Samples were analysed by electrophoresis in polyacrylamide gels (All Kd SDS-PAGE, BioRad) and the proteins transferred to nitrocellulose membranes (GE Healthcare, Amersham). After 1 h of incubation in blocking buffer [20 mM Tris pH 7.6, 150 mM NaCl and 0.1% Tween-20 (TBS-T) with 5% of bovine serum albumin (BSA)], blots were incubated overnight at 4 ᵒC with the corresponding primary antibody: anti-phospho-histone 2AX (Ser139) (EMD Millipore, […]
GAPDH (Cell Signaling, 2118S, 1:5000) and anti-actin (Santa Cruz Biotechnology, sc-376248, 1:500) as antibodies for loading control. Then, membranes were washed (3x10 min) with TBS-T and incubated with the corresponding secondary antibody conjugated with peroxidase (Sigma- Aldrich) for 1 h at rt. […] The bands were quantified by densitometry using the […]

[4] = Solubility in phosphate buffer solution; format: physicochemical; settings: aqueous buffer; phosphate buffer solution (PBS, pH = 7.5)

## CC1(C)Oc2cc3oc(=O)ccc3cc2C[C@@H]1OC(=O)CCCCCNc1cccc2c1C(=O)N(C1CCC(=O)NC1=O)C2=O (stereo partly shown) [compound 2]
[1]
  Stability (hours) Cell culture: >24 h
[2]
  levels of phosphorylated histone 2AX (pH2AX): reduces the levels of phosphorylated histone 2AX
[3]
  H3K9Me3 levels: significantly increased H3K9Me3 levels
  cell proliferation (Ki‐67 expression): enhances cell proliferation
  number of misshapen nuclei: significantly reduced the number of misshapen nuclei
  pH2AX levels: reduced pH2AX levels to those observed in WT cells
[4]
  solubility: 0.5 µM (≈ 0.308 µg/mL)
